Data on 26 compounds can be found in ChEMBL document CHEMBL1158599, “(2S,4S)-1-[2-(1,1-dimethyl-3-oxo-3-pyrrolidin-1-yl-propylamino)acetyl]-4-fluoro-pyrrolidine-2-carbonitrile: a potent, selective, and orally bioavailable dipeptide-derived inhibitor of dipeptidyl peptidase IV” (Bioorg Med Chem Lett, 2010).

pIC50: −log10 of the molar value.

Experiment [1] addresses T1, Dipeptidyl peptidase 9 (Homo sapiens, UniProt Q86TI2). Briefly: Inhibition of DPP9.
Target sequence in this assay (Q86TI2 whole entry): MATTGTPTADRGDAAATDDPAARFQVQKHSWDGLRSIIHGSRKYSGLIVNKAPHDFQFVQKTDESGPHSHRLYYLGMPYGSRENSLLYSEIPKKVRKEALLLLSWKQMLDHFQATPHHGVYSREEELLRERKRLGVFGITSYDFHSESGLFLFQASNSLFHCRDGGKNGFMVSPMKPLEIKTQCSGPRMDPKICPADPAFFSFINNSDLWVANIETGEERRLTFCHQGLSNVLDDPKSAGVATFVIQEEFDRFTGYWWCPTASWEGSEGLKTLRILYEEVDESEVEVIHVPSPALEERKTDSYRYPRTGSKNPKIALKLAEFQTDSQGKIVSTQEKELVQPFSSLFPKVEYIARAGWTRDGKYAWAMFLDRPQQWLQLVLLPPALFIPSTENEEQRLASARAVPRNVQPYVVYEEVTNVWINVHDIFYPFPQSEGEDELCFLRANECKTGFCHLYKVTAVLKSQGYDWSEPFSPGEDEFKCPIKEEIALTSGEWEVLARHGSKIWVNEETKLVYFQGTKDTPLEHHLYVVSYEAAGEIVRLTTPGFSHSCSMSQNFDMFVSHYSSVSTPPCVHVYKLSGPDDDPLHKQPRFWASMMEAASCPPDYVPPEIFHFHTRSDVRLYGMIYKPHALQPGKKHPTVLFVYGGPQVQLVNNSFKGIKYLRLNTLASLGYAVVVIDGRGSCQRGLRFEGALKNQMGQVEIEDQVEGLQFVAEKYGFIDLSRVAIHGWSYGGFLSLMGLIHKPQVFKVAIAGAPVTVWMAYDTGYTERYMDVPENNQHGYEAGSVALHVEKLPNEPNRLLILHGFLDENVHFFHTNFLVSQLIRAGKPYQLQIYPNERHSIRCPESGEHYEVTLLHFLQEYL
Experiment [2] has as its target T2, Prolyl endopeptidase FAP (Homo sapiens, UniProt Q12884).
T2 sequence (Q12884 whole entry): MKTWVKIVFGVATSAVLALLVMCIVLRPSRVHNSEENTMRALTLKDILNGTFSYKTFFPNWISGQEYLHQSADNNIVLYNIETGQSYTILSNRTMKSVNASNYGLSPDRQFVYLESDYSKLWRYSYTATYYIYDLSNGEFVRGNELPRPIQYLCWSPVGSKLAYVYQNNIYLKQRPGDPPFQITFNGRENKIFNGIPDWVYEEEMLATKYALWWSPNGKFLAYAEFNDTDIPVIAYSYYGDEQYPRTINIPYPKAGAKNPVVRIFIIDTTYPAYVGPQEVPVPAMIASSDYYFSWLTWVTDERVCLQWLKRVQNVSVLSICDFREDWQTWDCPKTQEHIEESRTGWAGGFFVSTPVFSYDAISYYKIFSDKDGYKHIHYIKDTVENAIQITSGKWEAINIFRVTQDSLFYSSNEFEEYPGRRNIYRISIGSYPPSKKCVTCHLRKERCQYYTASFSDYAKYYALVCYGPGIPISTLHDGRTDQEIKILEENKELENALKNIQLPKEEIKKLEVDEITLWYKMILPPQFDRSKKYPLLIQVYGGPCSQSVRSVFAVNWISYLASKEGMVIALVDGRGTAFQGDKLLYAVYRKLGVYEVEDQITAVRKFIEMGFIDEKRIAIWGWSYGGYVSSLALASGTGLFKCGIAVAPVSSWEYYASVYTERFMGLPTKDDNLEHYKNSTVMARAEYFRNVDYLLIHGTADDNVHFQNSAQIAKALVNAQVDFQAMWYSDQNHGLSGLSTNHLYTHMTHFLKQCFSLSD
Briefly: Inhibition of FAP.

Experiment [3] has as its target Dipeptidyl peptidase 2 (Homo sapiens, UniProt Q9UHL4). Briefly: Inhibition of DPP2.
Experiment [4] concerns the target Dipeptidyl peptidase 8 (Homo sapiens, UniProt Q6V1X1).
Experiment [5] addresses T3, Dipeptidyl peptidase 4 (Homo sapiens, UniProt P27487).
Experiment [6] has as its target T3, Dipeptidyl peptidase 4. This is another data set of the same source.
For experiment [7], the species on record is Rattus norvegicus. The experiment can be described thus: animal or person. To be noted: Plasma, po, 8 h, read-out: INH.
Experiment [8] is filed under the species Rattus norvegicus. Briefly: animal or person. To be noted: Plasma, po, 0.5 h, read-out: INH.
The target of experiment [9] is T3, Dipeptidyl peptidase 4. The source holds these as a separate data set.
In experiment [10] the target is T1, Dipeptidyl peptidase 9. Briefly: Inhibition of DPP9 at 20 uM.
Target sequence in this assay (Q86TI2 2-863 limits assumed): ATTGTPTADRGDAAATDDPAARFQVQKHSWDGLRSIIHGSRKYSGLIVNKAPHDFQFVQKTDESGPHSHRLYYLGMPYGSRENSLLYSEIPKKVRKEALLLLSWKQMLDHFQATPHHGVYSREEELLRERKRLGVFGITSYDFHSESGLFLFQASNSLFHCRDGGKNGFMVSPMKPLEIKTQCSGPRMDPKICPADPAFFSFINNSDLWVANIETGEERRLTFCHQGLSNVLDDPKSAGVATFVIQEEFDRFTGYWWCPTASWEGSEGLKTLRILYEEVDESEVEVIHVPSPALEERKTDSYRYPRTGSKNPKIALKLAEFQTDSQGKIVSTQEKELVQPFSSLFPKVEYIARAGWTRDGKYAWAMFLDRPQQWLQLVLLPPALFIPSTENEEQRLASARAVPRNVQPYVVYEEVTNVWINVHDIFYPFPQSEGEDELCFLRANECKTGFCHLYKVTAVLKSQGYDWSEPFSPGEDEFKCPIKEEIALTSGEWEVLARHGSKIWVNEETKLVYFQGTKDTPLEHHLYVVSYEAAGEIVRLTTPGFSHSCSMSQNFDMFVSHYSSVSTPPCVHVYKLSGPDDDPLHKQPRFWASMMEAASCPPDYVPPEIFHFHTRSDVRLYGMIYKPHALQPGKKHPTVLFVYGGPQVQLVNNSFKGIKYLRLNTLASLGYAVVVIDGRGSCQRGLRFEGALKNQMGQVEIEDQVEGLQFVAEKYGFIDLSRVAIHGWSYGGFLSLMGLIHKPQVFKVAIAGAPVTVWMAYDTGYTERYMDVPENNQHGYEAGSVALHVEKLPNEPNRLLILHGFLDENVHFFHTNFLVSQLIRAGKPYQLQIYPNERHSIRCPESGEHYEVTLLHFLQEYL
Experiment [11] is filed under the species Mus musculus. Briefly: animal or person. The settings on record: Plasma, po, 4 h, read-out: INH.

T3 sequence (P27487 whole entry): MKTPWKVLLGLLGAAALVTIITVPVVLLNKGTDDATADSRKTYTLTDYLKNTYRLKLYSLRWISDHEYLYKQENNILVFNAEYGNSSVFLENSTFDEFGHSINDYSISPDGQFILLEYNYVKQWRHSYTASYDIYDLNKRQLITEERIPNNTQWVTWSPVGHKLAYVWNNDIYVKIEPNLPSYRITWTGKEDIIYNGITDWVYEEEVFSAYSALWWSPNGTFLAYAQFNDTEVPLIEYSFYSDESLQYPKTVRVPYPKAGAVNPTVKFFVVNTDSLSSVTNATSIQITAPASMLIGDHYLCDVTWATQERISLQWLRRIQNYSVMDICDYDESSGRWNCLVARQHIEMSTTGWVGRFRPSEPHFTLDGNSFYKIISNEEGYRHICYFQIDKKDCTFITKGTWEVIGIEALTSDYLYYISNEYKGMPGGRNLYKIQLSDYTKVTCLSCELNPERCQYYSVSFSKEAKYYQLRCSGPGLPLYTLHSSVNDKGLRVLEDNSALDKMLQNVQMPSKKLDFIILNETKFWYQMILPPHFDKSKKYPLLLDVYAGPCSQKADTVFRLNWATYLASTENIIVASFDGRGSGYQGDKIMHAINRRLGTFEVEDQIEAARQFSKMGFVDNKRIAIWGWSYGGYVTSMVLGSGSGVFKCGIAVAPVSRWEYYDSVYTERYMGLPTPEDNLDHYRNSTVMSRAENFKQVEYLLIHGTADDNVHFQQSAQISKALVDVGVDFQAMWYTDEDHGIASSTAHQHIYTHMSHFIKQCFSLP
Chain of Dipeptidyl peptidase 8 (Q6V1X1 whole entry): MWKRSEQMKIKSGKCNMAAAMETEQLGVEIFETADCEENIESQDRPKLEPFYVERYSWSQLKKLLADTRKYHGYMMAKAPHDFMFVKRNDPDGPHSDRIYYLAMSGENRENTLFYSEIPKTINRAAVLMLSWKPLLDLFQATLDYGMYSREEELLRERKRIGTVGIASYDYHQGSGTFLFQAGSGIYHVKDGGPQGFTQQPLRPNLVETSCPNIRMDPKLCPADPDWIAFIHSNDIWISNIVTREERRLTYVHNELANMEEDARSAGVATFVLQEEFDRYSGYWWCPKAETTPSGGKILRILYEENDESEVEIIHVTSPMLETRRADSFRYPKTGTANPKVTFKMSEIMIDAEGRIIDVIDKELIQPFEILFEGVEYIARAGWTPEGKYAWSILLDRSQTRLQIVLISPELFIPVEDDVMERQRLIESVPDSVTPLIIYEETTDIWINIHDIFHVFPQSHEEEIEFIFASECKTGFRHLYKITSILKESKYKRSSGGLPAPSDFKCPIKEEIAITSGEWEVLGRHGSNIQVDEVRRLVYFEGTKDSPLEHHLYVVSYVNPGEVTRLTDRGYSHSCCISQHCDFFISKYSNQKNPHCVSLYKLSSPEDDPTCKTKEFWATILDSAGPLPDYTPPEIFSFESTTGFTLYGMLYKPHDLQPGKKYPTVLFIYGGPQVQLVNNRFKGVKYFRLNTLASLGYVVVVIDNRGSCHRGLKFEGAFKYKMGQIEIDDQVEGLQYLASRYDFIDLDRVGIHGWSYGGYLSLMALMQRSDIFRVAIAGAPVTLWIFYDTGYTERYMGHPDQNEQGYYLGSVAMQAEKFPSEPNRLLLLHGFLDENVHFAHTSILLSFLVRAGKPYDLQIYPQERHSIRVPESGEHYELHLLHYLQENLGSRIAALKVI

As to `COc1ccc(NC(=O)CC(C)(C)NCC(=O)N2CCC[C@H]2C#N)cc1OC`, the pIC50 in experiment [1] is < 4.70; in experiment [2] it was < 4.30; in [3], < 4.70; in experiment [4] it was < 4.30.

As for `CC(C)(CC(=O)Nc1ccccn1)NCC(=O)N1C[C@@H](F)C[C@H]1C#N`, the pIC50 is 7.62 in experiment [5]; < 4.70 in experiment [1]; 7.72 in [6]; < 4.70 in experiment [4]; 7.72 in experiment [9]. Also, the inhibition in vivo at 3 mg/kg in [7] was determined as 31%; in experiment [8] it was 87%.

As for `C#C[C@@H]1C[C@H](F)CN1C(=O)CC(C)(C)CC(=O)N[C@H]1C[C@@H]1c1cccc(Cl)c1`, the pIC50 was 6.68 in experiment [5]; 7.82 in experiment [6]; < 4.70 in experiment [2]; < 4.00 in experiment [3]; < 4.70 in experiment [4]; 6.07 in [9]. For the same compound, the inhibition in vivo at 3 mg/kg was 30% in experiment [7] and 66% in [8]. Moreover, the inhibition in experiment [10] worked out at 72%.

Turning to `CC(C)(CC(=O)N1CC=CCC1)NCC(=O)N1C[C@@H](F)C[C@H]1C#N`, the results for the pIC50 in [6] and in experiment [4] were 7.74 and < 4.70, respectively. The inhibition in vivo at 3 mg/kg turned out to be 70% in [7] and 85% in [8]. The compound further had an inhibition in experiment [10] of 50%.

On to `N[C@@H](CC(=O)N1CCn2c(nnc2C(F)(F)F)C1)Cc1cc(F)c(F)cc1F` [SITAGLIPTIN], for which the inhibition in vivo at 3 mg/kg is 20% in experiment [7] and 30% in experiment [8].

In the case of `CC(C)(CC(=O)N1CC[C@@H](F)C1)NCC(=O)N1C[C@@H](F)C[C@H]1C#N`, the pIC50 in [1] and in experiment [4] was < 4.70 throughout.

With `CC(C)(CC(=O)N1CCN(S(C)(=O)=O)CC1)NCC(=O)N1C[C@@H](F)C[C@H]1C#N`, the pIC50 in [1] was < 4.70; in experiment [6], 7.62; in [4] it was < 4.70; in experiment [9] it was 7.82. Besides, the inhibition in vivo at 3 mg/kg was 7% in experiment [7] and 64% in [8].

Turning to `CCOC(=O)N1CCN(C(=O)CC(C)(C)NCC(=O)N2C[C@@H](F)C[C@H]2C#N)CC1`, the figures for the pIC50 in [1], in [6] and in experiment [4] were < 4.70, 7.20 and < 4.70, respectively.

As for `CC(C)(CC(=O)N1C2CCC1CC2)NCC(=O)N1C[C@@H](F)C[C@H]1C#N`, the pIC50 is < 4.70 in experiment [1], 7.18 in experiment [6] and < 4.70 in [4].

Consider `CC(C)(CC(=O)N1Cc2ccccc2C1)NCC(=O)N1CCC[C@H]1C#N`, for which the negative-log IC50 (pIC50) in [1] is < 4.00. In addition, in [11], the inhibition in vivo at 18 mg/kg was > 80%.

Turning to `CC(C)(CC(=O)N1CC[C@@H](O)C1)NCC(=O)N1CCC[C@H]1C#N`, the figures for the pIC50 in [1], in experiment [6] and in experiment [4] were < 4.70, 6.74 and < 4.70, respectively.

As for `CN1CCN(C(=O)CC(C)(C)NCC(=O)N2C[C@@H](F)C[C@H]2C#N)CC1`, the pIC50 is 7.03 in [6] and < 4.70 in experiment [4]. Further, in experiment [10], the inhibition stood at 86%.

Consider `N#C[C@@H]1CCCN1C(=O)CNC12CC3CC(CC(O)(C3)C1)C2` [VILDAGLIPTIN], for which the inhibition in vivo at 3 mg/kg in experiment [7] came out at 73%; in experiment [8] it was 84%.

In the case of `CC(C)(CC(=O)N1CC[C@@H](O)C1)NCC(=O)N1C[C@@H](F)C[C@H]1C#N`, the pIC50 in experiment [5] is 7.64; in experiment [1], < 4.70; in experiment [6], 7.52; in experiment [4], < 4.70; in experiment [9] it was 7.68. Besides, the inhibition in vivo at 3 mg/kg in experiment [7] was 15%; in experiment [8] it was 63%.

`CC(C)(CC(=O)N1CC[C@H](O)C1)NCC(=O)N1C[C@@H](F)C[C@H]1C#N`: the pIC50 in experiment [1] was < 4.70; in experiment [6], 7.30; in [4], < 4.70.

Take `CC(C)(CC(=O)N1CCSC1)NCC(=O)N1C[C@@H](F)C[C@H]1C#N`: the pIC50 in experiment [1] was < 4.70; in experiment [6], 7.57; in experiment [4] it was < 4.70. Also, the inhibition in vivo at 3 mg/kg in experiment [7] turned out to be 56%; in experiment [8] it was 77%.

In the case of `C[C@@H]1CCCN1C(=O)CC(C)(C)NCC(=O)N1C[C@@H](F)C[C@H]1C#N`, the negative-log IC50 (pIC50) was < 4.70 in [1], 7.49 in experiment [6] and < 4.70 in experiment [4]. In addition, the figures for the inhibition in vivo at 3 mg/kg in experiment [7] and in experiment [8] were 48% and 75%, respectively.

For `CC(C)(CC(=O)N1CCOCC1)NCC(=O)N1C[C@@H](F)C[C@H]1C#N`, the pIC50 in experiment [5] is 7.85; in experiment [1], < 4.70; in [6], 7.70; in experiment [4], < 4.70; in experiment [9] it was 7.89. Besides, the inhibition in vivo at 3 mg/kg stood at 59% in experiment [7] and 89% in [8].

As for `CC(C)(CC(=O)N1CCCCC1)NCC(=O)N1C[C@@H](F)C[C@H]1C#N`, the pIC50 in [1] was < 4.70; in [6] it was 7.57; in experiment [4], < 4.70; in [9] it was 7.85. Also, the inhibition in vivo at 3 mg/kg worked out at 74% in experiment [7] and 86% in experiment [8].

For `CC(C)(CC(=O)N1CCCC1)NCC(=O)N1CCC[C@H]1C#N`, the pIC50 in [1] and in experiment [4] was < 4.70 in each case.

Regarding `CC(C)(CC(=O)N1CCCCCC1)NCC(=O)N1C[C@@H](F)C[C@H]1C#N`, the pIC50 in experiment [1] is < 4.70; in experiment [6] it was 6.80; in experiment [4] it was < 4.70.

Turning to `COc1ccc(NC(=O)CC(C)(C)NCC(=O)N2C[C@@H](F)C[C@H]2C#N)nc1`, the pIC50 is 7.72 in experiment [6], < 4.70 in [4] and 7.74 in experiment [9]. Further, the inhibition in vivo at 3 mg/kg in experiment [7] was determined as 41%; in experiment [8], 88%. In addition, in experiment [10], the inhibition was found to be 61%.

With `CC(C)(CC(=O)N1CCC(=O)CC1)NCC(=O)N1C[C@@H](F)C[C@H]1C#N`, the pIC50 was < 4.70 in experiment [1], 7.59 in [6] and < 4.70 in experiment [4].

On to `CC(C)(CC(=O)N1CCC[C@H]1CO)NCC(=O)N1C[C@@H](F)C[C@H]1C#N`, for which the pIC50 in experiment [1] was < 4.70; in experiment [6], 7.62; in experiment [4], < 4.70.

Regarding `COc1ccc(NC(=O)CC(C)(C)NCC(=O)N2C[C@@H](F)C[C@H]2C#N)cc1OC`, the values for the pIC50 in experiment [6] and in experiment [4] were 7.57 and < 4.70, respectively. In addition, the inhibition in vivo at 3 mg/kg in experiment [7] is 18%; in [8], 86%. The compound also displayed an inhibition in experiment [10] of 73%.

Turning to `CC(C)(CC(=O)NC1CCCC1)NCC(=O)N1C[C@@H](F)C[C@H]1C#N`, the pIC50 in [1] was < 4.70; in experiment [6], 7.54; in experiment [4], < 4.70. Moreover, the results for the inhibition in vivo at 3 mg/kg in [7] and in experiment [8] were 60% and 81%, respectively.

One may read the pIC50 as −log10 of the IC50, conventionally taken in molar units. High values mean a small IC50, low ones a large IC50. For orientation: inhibition means how much of the control response was suppressed.
